Measured values from patent US12534478B2, “Prevention, prophylactic and therapeutic treatment of autoimmune diseases including multiple sclerosis using novel small molecules and compositions thereof” (University of Sharjah, priority 2020, dated 2026).
“Also recorded” adds a separate entry of the source.

Legend:
GFAP = GFAP staining of cerebellum (glial cell activation, gliosis); assay type: in vivo, SJL/J female mice; conditions: 50 μg/mouse IP (FIG. 8)
Method: (§1) Untreated mice or mice injected with DMSO as a vehicle were used. For positive group, the results regarding the effects of RTX were used. During the course of the EAE disease, the animals were independently observed and monitored daily, and the EAE clinical score was recorded according to the following scoring scheme: 0=no clinical disease, 1=tail flaccidity, 2=hind limb weakness, 3=hind limb paralysis, 4=forelimb paralysis, and 5=moribund or death. The body weight changes were also monitored for all the mice groups. After the termination of the experiment, the mice were sacrificed, and their brains were collected for histological and immunohistochemistry analysis.
FIG. 7 illustrates infiltration of CD3^+ lymphocytes into the cerebellum of mice brains (rectangles or squares). […] To further investigate the effects of the drugs on brain inflammation, we examined the activation of glial cells by staining with GFAP which determines the degree of gliosis.

[1] = Body weight of EAE mice during treatment; assay type: in vivo; conditions: prophylactic, therapeutic or prevention regimen, measured every day up to 45 days (FIG. 5)
Method: as §1
(§2) FIG. 5 illustrates the weights of mice measured every day through the course of the experiments, i.e. up to 45 days after the initiation of the disease. FIGS. 5A, 5B and 5C, show the weights of mice after prophylactic, therapeutic or prevention regimen, respectively. Significant values shown in the right panels compared the mice body weights among the various groups. To corroborate the results of clinical scores with histological evaluation, we performed immunohistochemistry analysis to evaluate the effects of the two drugs on the inflammation taking place in the brain. First, we stained the brain cerebellum of these mice with H&E to evaluate the degree of inflammation.

[2] = system: CD3^+ T lymphocyte infiltration into the cerebellum; experiment: Anti-CD3 staining of cerebellum; assay type: in vivo, SJL/J female mice; conditions: 50 μg/mouse IP (FIG. 7)
Method: as §1
FIG. 6 illustrates H&E staining of mice cerebellum (rectangles) showing highly inflamed lesions in EAE untreated and vehicle treated mice (arrows). […] Further, infiltration of CD3 cells into the mice cerebellum stained with anti-CD3 was performed.

[3] = system: experimental autoimmune encephalomyelitis (EAE) model; experiment: EAE clinical score in PLP-induced EAE mice; assay type: in vivo, SJL/J female mice; conditions: for clinical score severity and clinical features (therapeutic effect in EAE mice model): regimen not specified
Method: The basic experimental approaches to test the efficacy of the compounds in the EAE model were done using the methodologies developed in our laboratory. EAE disease was induced in 4-6 weeks SJL female mice using 200 μg PLP peptide emulsified in complete Freund's adjuvant (CFA) containing 1 mg heat-killed Mycobacterium tuberculosis, injected at four sites in the right and left flanks. Following each injection, 200 ng of Bordetella pertussis toxin PTX) was injected intraperitoneal (IP) on days 0 and 2 post PLP immunization. The mice were divided into several groups: 1. prevention, where they were treated with 50 μg/mouse of SIMR1281 or SIMR1707 starting 15 days before the induction of EAE and continued […]. 2. Prophylactic, mice were treated with 50 μg/moues of SIMR1281 or SIMR1707 starting from day of EAE induction and continued every three days until termination (usually between 40-45 days). 3. Therapeutic, where mice were treated with 50 μg of SIMR1281 or SIMR1707 from the days of disease development (usually between 8-10 post EAE induction), and continued every three days until termination. The procedure for these regimens is shown below: • A. Prophylactic regimen: Mice were injected IP with 50 μg/mouse every 3 days since the initiation of the disease and until termination.
[drawing 3] • B. Therapeutic regimen: Mice were injected IP with 50 μg/mouse every 3 days at the appearance of symptoms (usually […]) days after initiation of the disease and until termination.
[drawing 4] • C. Prevention: The mice were injected IP with 50 μg/mouse of SIMR 1707 or 1281 at days −15, −10, −5, and 0. EAE was induced at day 0.
as §1

[4] = system: perivascular inflammatory infiltrates in cerebellum; experiment: H&E staining of brain cerebellum (degree of inflammation); assay type: in vivo, SJL/J female mice; conditions: 50 μg/mouse IP (FIG. 6)
Method: as §1, §2

[5] = system: demyelination in the cerebellum; experiment: Luxol fast blue staining of cerebellum (demyelination / re-myelination); assay type: in vivo, SJL/J female mice; conditions: 50 μg/mouse IP (FIG. 9)
Method: as §1
FIG. 8 illustrates mouse brain cerebellum (rectangles or squares) was stained with GFAP to determine the degree of glial cell activation. […] Finally, we stained the mice brain cerebellum with Luxol fast blue to determine the degree of re-myelination after treatment with the two drugs.

[6] = prevention regimen, 50 μg/mouse IP on days −15, −10, −5 and 0, EAE induced at day 0, vs vehicle or untreated (FIG. 3C)
[7] = prophylactic regimen, 50 μg/mouse IP every 3 days from EAE induction until termination, vs vehicle or untreated (FIG. 3A)
[8] = therapeutic regimen, 50 μg/mouse IP every 3 days from appearance of symptoms until termination, vs vehicle or untreated (FIG. 3B)

Molecule | GFAP expression / gliosis (GFAP; prevention regimen) | GFAP expression / gliosis (GFAP; prophylactic regimen) | GFAP expression / gliosis (GFAP; therapeutic regimen) | body weight [1] | CD3^+ T lymphocyte infiltration ([2]; prevention regimen) | CD3^+ T lymphocyte infiltration ([2]; prophylactic regimen) | CD3^+ T lymphocyte infiltration ([2]; therapeutic regimen) | clinical score severity and clinical features (therapeutic effect in EAE mice model) [3] | EAE clinical scores [3, 6] | EAE clinical scores [3, 7] | EAE clinical scores [3, 8] | inflammation, perivascular inflammatory infiltrates (H&E) ([4]; prevention regimen) | inflammation, perivascular inflammatory infiltrates (H&E) ([4]; prophylactic regimen) | inflammation, perivascular inflammatory infiltrates (H&E) ([4]; therapeutic regimen) | demyelination / re-myelination (Luxol fast blue) ([5]; prevention regimen) | demyelination / re-myelination (Luxol fast blue) ([5]; prophylactic regimen) | demyelination / re-myelination (Luxol fast blue) ([5]; therapeutic regimen) | EAE clinical scores ([3]; RTX as prophylactic drug, IP from day 0 every three days until termination (FIG. 4A)) | EAE clinical scores ([3]; RTX as therapeutic drug, 5 μg/mouse IP from first sign of disease every three days until termination (FIG. 4B)) | EAE clinical scores ([3]; RTX prevention regimen, IP on days −15, −10, −5 and 0, particularly at high concentration, 20 μg/mouse (FIG. 4C))
CC1(C)[C@H]2COc3ccc4ccccc4c3[C@H]2N=C2SC(c3ccccc3)=C(c3ccccc3)N21 [SIMR-1281, (8aS,14aS)-9,9-dimethyl-11,12-diphenyl-8a,14a-dihydro-8H,9H-benzo[5,6]chromeno[4,3-d]thiazolo[3,2-a]pyrimidine] | significant reduction; also recorded: so robust in preventing gliosis | significant reduction; also recorded: so robust in preventing gliosis | significant reduction; also recorded: so robust in preventing gliosis | significantly increased the weights | no evidence of CD3^+ T lymphocyte infiltration; also recorded: no CD3^+ T cell accumulation | no evidence of CD3^+ T lymphocyte infiltration; also recorded: no CD3^+ T cell accumulation | no evidence of CD3^+ T lymphocyte infiltration; also recorded: no CD3^+ T cell accumulation | significant reduction | significant decrease | significant decrease | significant decrease | no evidence of any perivascular inflammatory infiltrates; also recorded: no inflammation | no evidence of any perivascular inflammatory infiltrates; also recorded: no inflammation | no evidence of any perivascular inflammatory infiltrates; also recorded: no inflammation | no evidence of demyelination | no evidence of demyelination | no evidence of demyelination |  |  | 
C[C@]12CCC(=O)C[C@H]1N1CCc3c([nH]c4ccccc34)[C@@H]1CO2 [SIMR-1707] | only partial reduction; also recorded: Less gliosis | significant reduction; also recorded: no obvious glial cells activation | significant reduction; also recorded: no obvious glial cells activation | significantly increased the weights | less infiltration of CD3^+ T cells | partially reduce; also recorded: less infiltration of CD3^+ T cells | no evidence of any CD3^+ T lymphocyte infiltration; also recorded: completely disappeared | significant reduction | not when used in the prevention regimen | effective | effective | minimal evidence of perivascular inflammatory infiltrates; also recorded: less inflammation | minimal evidence of perivascular inflammatory infiltrates; also recorded: less inflammation | no evidence of perivascular inflammatory infiltrates; also recorded: completely disappeared | partial improvement in re-myelination; also recorded: partial improvement in demyelination | partial improvement in re-myelination; also recorded: partial improvement in demyelination | significant reduction in the demyelination areas |  |  | 
Rituximab [RTX, reference compound] |  |  |  |  |  |  |  |  |  |  |  |  |  |  |  |  |  | did not exert significant differences | did not exert significant differences | only worked in the prevention regimen
